Source: patent publication US20260216335A1, “COMPOSITIONS AND METHODS FOR TARGETING AND TREATING TUMOR” (JIANGSU CODE BIOMEDICAL TECHNOLOGY CO., LTD., priority 2023, published 2026)

Tests used:
Type in all cases: physicochemical
[1] = Photothermal conversion under continuous 808 nm laser irradiation, 1.5 W/cm^2; conditions: 808 nm NIR laser
Method: DdH2O, blank nanoparticles, 0.012 mg/mL free ICG, nanoparticles containing ICG and Fe3O4 (concentration of ICG is 0.012 mg/mL) and nanoparticles containing ICG and oleic acid modified Fe3O4 were continuously irradiated at 1.5 W/cm2 by 808 nm laser emitter. […] Then, PLGA nanoparticles coated with oleic acid modified Fe3O4 and free oleic acid modified Fe3O4 were irradiated continuously. […] But the heat production capacity is low. Then, we used intermittent irradiation method, every 3 minutes to raise the temperature to the highest point, and stopped the irradiation for 7 minutes to bring the temperature back to room temperature until the temperature no longer increased.
To evaluate its photothermal conversion performance, ICG/OA-Fe3O4@PLGA solutions were irradiated with an 808 nm NIR laser (1.5 W/cm^2, FIGS. 3A-3C). […] No significant temperature changes were found in Blank-NP solution and DI water. Only negligible temperature increase of Blank-NP solution and DI water were found.

[2] = Photothermal stability, laser ON 3 min / OFF 7 min cycles; conditions: NIR laser 3 min ON, 7 min OFF
Method: DdH2O, blank nanoparticles, 0.012 mg/mL free ICG, nanoparticles containing ICG and Fe3O4 (concentration of ICG is 0.012 mg/mL) and nanoparticles containing ICG and oleic acid modified Fe3O4 were continuously irradiated at 1.5 W/cm2 by 808 nm laser emitter. […] Then, PLGA nanoparticles coated with oleic acid modified Fe3O4 and free oleic acid modified Fe3O4 were irradiated continuously.
ICG@NPs, free ICG, ICG/OA-Fe3O4@NPs, free ICG/OA-Fe3O4 were irradiated with the NIR laser for 3 min (Laser ON), followed by natural cooling for 7 min (Laser OFF).
Furthermore, to investigate the photothermal conversion stability of ICG/OA-Fe3O4@PLGA for practical applications, solutions of ICG/OA-Fe3O4@PLGA, ICG/Fe3O4@PLGA, ICG@PLGA, Blank-NPs and free ICG were irradiated with the NIR laser for 3 min (Laser ON), followed by natural cooling for 7 min (Laser OFF).

[3] = Photothermal heating under 808 nm NIR laser, 1.0 W/cm^2 for 10 min; conditions: 1.0 W/cm^2, 10 min, 1 mL aqueous, 12 μg/mL ICG or 11.6 μg/mL Fe
Method: To synthesize an effectiveness photothermal agents, we explore the synergistic effect of ICG and OA-Fe3O4. Various photothermal agents were exposed to 808 nm NIR laser irradiation with a power density of 1.0 W/cm^2 for 10 min. Aqueous suspensions of ICG/OA-Fe3O4@NPs, mixture of free ICG and OA-Fe3O4 (1 mL solution with 12 μg/mL ICG or 11.6 μg/mL Fe) reach the maximum temperatures of 45.9° C., 46.6° C.

time high temperature was maintained [1]: only a few minutes
temperature reached by the solution ([1]; 500 μg mL-1): 47.3 °C
maxim temperature, laser ON/OFF cycle 1 ([2]; 1st of six cycles): 40.9 °C
maxim temperature, laser ON/OFF cycle 2 ([2]; 2nd of six cycles): 37.1 °C
maxim temperature, laser ON/OFF cycle 3 ([2]; 3rd of six cycles): 33.8 °C
maxim temperature, laser ON/OFF cycle 4 ([2]; 4th of six cycles): 32.8 °C
maxim temperature, laser ON/OFF cycle 5 ([2]; 5th of six cycles): 30.7 °C
maxim temperature, laser ON/OFF cycle 6 ([2]; 6th of six cycles): 30.1 °C
maximum temperature [3]: 41.8 °C
SMILES: CC1(C)C(/C=C/C=C/C=C/C=C2\N(CCCCS(=O)(=O)O)c3ccc4ccccc4c3C2(C)C)=[N+](CCCCS(=O)(=O)[O-])c2ccc3ccccc3c21 [free ICG, Indocyanine green]
